Assay results: patent publication US7618960B2, “Morpholine type cinnamide compound” (Eisai R&D Management Co., Ltd., priority 2005, dated 2009)

System: Aβ42 production
Experiment: Quantification of Aβ peptide in culture of neurons from rat fetus brain (Aβ ELISA)
Assay type: cell-based
Conditions: Neuron, 72 h; rat primary neuronal culture (cerebral cortex, embryonic day 18 Wistar rats); medium collected three days after addition of compound; Aβx-42 ELISA; read-out: Activity for reducing Aβ42 production IC50
Description: Quantification of Aβ Peptide in Culture of Neurons from Rat Fetus Brain
(1) Rat Primary Neuronal Culture
Primary neuronal cultures were prepared from the cerebral cortex of embryonic day 18 Wistar rats (Charles River Japan, Yokohama, Japan). Specifically, the embryos were aseptically removed from pregnant rats under ether anesthesia. The brain was isolated from the embryo and immersed in an ice-cold L-15 medium (Invitrogen Corp. Cat #11415-064, Carlsbad, Calif., USA, or SIGMA L1518, for example). The cerebral cortex was collected from the isolated brain under a stereoscopic microscope. The cerebral cortex fragments collected were enzymatically treated in an enzyme solution containing 0.25% trypsin (Invitrogen Corp. Cat #15050-065, Carlsbad, Calif., USA) and 0.01% DNase (Sigma D5025, St. Louis, Mo., USA) at 37° C. for 30 minutes to disperse the cells. Here, the enzymatic reaction was stopped by adding inactivated horse serum to the solution. The enzymatically treated solution was centrifuged at 1,500 rpm for five minutes to remove the supernatant. 5 to 10 ml of a medium was added to the resulting cell mass. Neurobasal medium (Invitrogen Corp. Cat #21103-049, Carlsbad, Calif., USA) supplemented with 2% B27 supplement (Invitrogen Corp. Cat #17504-044, Carlsbad, Calif., USA), 25 μM 2-mercaptoethanol (2-ME, WAKO Cat #139-06861, Osaka, Japan), 0.5 mM L-glutamine (Invitrogen Corp. Cat #25030-081, Carlsbad, Calif., USA), and Antibiotics-Antimycotics (Invitrogen Corp. Cat #15240-062, Carlsbad, Calif., USA) was used as the medium (Neurobasal/B27/2-ME). However, the above Neurobasal medium not supplemented with 2-ME (Neurobasal/B27) was used for the assay. The cells were redispersed by mild pipetting of the cell mass to which the medium was added. The cell dispersion was filtered through a 40-μm nylon mesh (Cell Strainer, Cat #35-2340, Becton Dickinson Labware, Franklin Lakes, N.J., USA) to remove the remaining cell mass, and thus a neuronal cell suspension was obtained. The neuronal cell suspension was diluted with the medium and then plated in a volume of 100 μl/well at an initial cell density of 5×10^5 cells/cm^2 in a 96-well polystyrene culture plate pre-coated with poly-L or D-lysine (Falcon Cat #35-3075, Becton Dickinson Labware, Franklin Lakes, N.J., USA coated with poly-L-lysine using the method shown below, or BIOCOAT™ cell environments Poly-D-lysine cell ware 96-well plate, Cat #35-6461, Becton Dickinson Labware, Franklin Lakes, N.J., USA). Poly-L-lysine coating was carried out as follows. 100 μg/ml of a poly-L-lysine (SIGMA P2636, St. Louis, Mo., USA) solution was aseptically prepared with a 0.15 M borate buffer (pH 8.5). 100 μl/well of the solution was added to the 96-well polystyrene culture plate and incubated at room temperature for one or more hours or at 4° C. overnight or longer. The coated 96-well polystyrene culture plate was washed with sterile water four or more times, and then dried or rinsed with, for example, sterile PBS or medium, and used for cell plating. The plated cells were cultured in the culture plate at 37° C. in 5% […]-95% air for one day. Then, the total amount of the medium was replaced with a fresh Neurobasal™/B27/2-ME medium, and then the cells were cultured for further three days.
The drug was added to the culture plate on Day 4 of culture as follows. The total amount of the medium was removed from the wells, and 180 μl/well of Neurobasal medium not containing 2-ME and containing 2% B-27 (Neurobasal/B27) was added thereto. A solution of the test compound in dimethyl sulfoxide (hereinafter abbreviated as DMSO) was diluted with Neurobasal/B27 so that the initial concentration was at 10-fold of the final concentration. 20 μl/well of the dilution was added to and sufficiently mixed with the medium. The final DMSO concentration was 1% or less. Only DMSO was added to the control group.
The cells were cultured for three days after addition of the compound, and the total amount of the medium was collected. […]

| Structure (SMILES) | IC50 [nM] |
| --- | --- |
| COc1cc(/C=C2\O[C@@H](C)CN([C@H](C)c3ccc(Cl)nc3)C2=O)ccc1-n1cnc(C)c1 [Example 19, (Z)-(S)-4-[(R)-1-(6-chloropyridin-3-yl)ethyl]-2-[1-[3-methoxy-4-(4-methyl-1H-imidazol-1-yl)phenyl]methylidene]-6-methylmorpholin-3-one] | 54 |
| COc1cc(/C=C2\O[C@H](C)CN(Cc3cc(F)c(F)c(F)c3)C2=O)ccc1-n1cnc(C)c1 [Example 4, (Z)-(R)-2-[1-[3-methoxy-4-(4-methyl-1H-imidazol-1-yl)phenyl]methylidene]-6-methyl-4-(3,4,5-trifluorobenzyl)morpholin-3-one] | 69 |
| COc1cc(/C=C2\O[C@@H](C)CN([C@H](C)c3ccc(F)nc3F)C2=O)ccc1-n1cnc(C)c1 [Example 23, (Z)-(S)-4-[(R)-1-(2,6-difluoropyridin-3-yl)ethyl]-2-[1-[3-methoxy-4-(4-methyl-1H-imidazol-1-yl)phenyl]methylidene]-6-methylmorpholin-3-one] | 130 |
| Cc1cn(-c2ccc(/C=C3\OC(C)(C)CN([C@H](c4cc(F)c(F)c(F)c4)[C@@H](C)O)C3=O)cc2F)cn1 [Example 77, (Z)-2-[1-[3-fluoro-4-(4-methyl-1H-imidazol-1-yl)phenyl]methylidene]-4-[(1R,2R)-2-hydroxy-1-(3,4,5-trifluorophenyl)propyl]-6,6-dimethylmorpholin-3-one] | 141 |
| COc1cc(/C=C2\OC[C@H]3COC[C@@H](c4ccc(F)c(F)c4)N3C2=O)ccc1-n1cnc(C)c1 [Example 109, (6R,9aR)-6-(3,4-difluorophenyl)-3-{1-[3-methoxy-4-(4-methyl-1H-imidazol-1-yl)phenyl]-(Z)-methylidene}tetrahydro[1,4]oxazino[3,4-c][1,4]oxazin-4-one] | 100 |
| COc1cc(/C=C2\O[C@@H](C)CN([C@@H](C)c3ccnc(F)c3F)C2=O)ccc1-n1cnc(C)c1 [Example 24, (Z)-(S)-4-[(S)-1-(2,3-difluoropyridin-4-yl)ethyl]-2-[1-[3-methoxy-4-(4-methyl-1H-imidazol-1-yl)phenyl]methylidene]-6-methylmorpholin-3-one] | 36 |
| Cc1cn(-c2ccc(/C=C3\CCCN([C@H](c4cc(F)c(F)c(F)c4)[C@@H](C)O)C3=O)cc2F)cn1 [Example 85, (E)-3-{1-[3-fluoro-4-(4-methyl-1H-imidazol-1-yl)phenyl]methylidene}-1-[(1R,2R)-2-hydroxy-1-(3,4,5-trifluorophenyl)propyl]piperidin-2-one] | 64 |
| COc1cc(/C=C2\O[C@@H](C)CN([C@H](C)c3ccnc(F)c3F)C2=O)ccc1-n1cnc(C)c1 [Example 25, (Z)-(S)-4-[(R)-1-(2,3-difluoropyridin-4-yl)ethyl]-2-[1-[3-methoxy-4-(4-methyl-1H-imidazol-1-yl)phenyl]methylidene]-6-methylmorpholin-3-one] | 141 |
| COc1cc(/C=C2\O[C@@H](C)CN([C@H]3CCOc4ccccc43)C2=O)ccc1-n1cnc(C)c1 [Example 13, (Z)-(S)-4-[(S)-chroman-4-yl]-2-[1-[3-methoxy-4-(4-methyl-1H-imidazol-1-yl)phenyl]methylidene]-6-methylmorpholin-3-one] | 129 |
| COc1cc(/C=C2\OC(C)(C)CN([C@@H](CO)c3ccc(F)cc3)C2=O)ccc1-n1cnc(C)c1 [Example 28, (Z)-4-[(R)-1-(4-fluorophenyl)-2-hydroxyethyl]-2-[1-[3-methoxy-4-(4-methyl-1H-imidazol-1-yl)phenyl]methylidene]-6,6-dimethylmorpholin-3-one] | 16 |
| COc1cc(/C=C2\OC(C)(C)CN([C@H](c3ccc(F)cc3)[C@@H](C)O)C2=O)ccc1-n1cnc(C)c1 [Example 33, (Z)-4-[(1R,2R)-1-(4-fluorophenyl)-2-hydroxypropyl]-2-[1-[3-methoxy-4-(4-methyl-1H-imidazol-1-yl)phenyl]methylidene]-6,6-dimethylmorpholin-3-one] | 63 |
| COc1cc(/C=C2\OC(C)(C)CN([C@@H](C)c3ccc(F)nc3F)C2=O)ccc1-n1cnc(C)c1 [Example 55, (Z)-4-[(S)-1-(2,6-difluoropyridin-3-yl)ethyl]-2-[1-[3-methoxy-4-(4-methyl-1H-imidazol-1-yl)phenyl]methylidene]-6,6-dimethylmorpholin-3-one] | 111 |
| COc1cc(/C=C2\O[C@@H](C)CN([C@@H](C)c3ccc(F)nc3F)C2=O)ccc1-n1cnc(C)c1 [Example 22, (Z)-(S)-4-[(S)-1-(2,6-difluoropyridin-3-yl)ethyl]-2-[1-[3-methoxy-4-(4-methyl-1H-imidazol-1-yl)phenyl]methylidene]-6-methylmorpholin-3-one] | 30 |
| COc1cc(/C=C2\OCCN([C@H](c3cc(F)c(F)c(F)c3)[C@@H](C)O)C2=O)ccc1-n1cnc(C)c1 [Example 30, (Z)-4-[(1R,2R)-2-hydroxy-1-(3,4,5-trifluorophenyl)propyl]-2-[1-[3-methoxy-4-(4-methyl-1H-imidazol-1-yl)phenyl]methylidene]morpholin-3-one] | 54 |
| COc1cc(/C=C2\O[C@@H](C)CN([C@H](C)c3ccc(Cl)cn3)C2=O)ccc1-n1cnc(C)c1 [Example 21, (Z)-(S)-4-[(R)-1-(5-chloropyridin-2-yl)ethyl]-2-[1-[3-methoxy-4-(4-methyl-1H-imidazol-1-yl)phenyl]methylidene]-6-methylmorpholin-3-one] | 195 |
| COc1cc(/C=C2\OC[C@H]3COC[C@@H](c4cc(F)c(F)c(F)c4)N3C2=O)ccc1-n1cnc(C)c1 [Example 108, (6R,9aR)-3-{1-[3-methoxy-4-(4-methyl-1H-imidazol-1-yl)phenyl]-(Z)-methylidene}-6-(3,4,5-trifluorophenyl)tetrahydro[1,4]oxazino[3,4-c][1,4]oxazin-4-one] | 60 |
| Cc1cn(-c2ccc(/C=C3\C[C@H](C)CN([C@H](c4cc(F)c(F)c(F)c4)[C@@H](C)O)C3=O)cc2F)cn1 [Example 84, (E)-(S)-3-{1-[3-fluoro-4-(4-methyl-1H-imidazol-1-yl)phenyl]methylidene}-1-[(1R,2R)-2-hydroxy-1-(3,4,5-trifluorophenyl)propyl]-5-methylpiperidin-2-one] | 37 |
| COc1cc(/C=C2\OC(C)(C)CN([C@@H](C)c3ccnc(F)c3F)C2=O)ccc1-n1cnc(C)c1 [Example 58, (Z)-4-[(S)-1-(2,3-difluoropyridin-4-yl)ethyl]-2-[1-[3-methoxy-4-(4-methyl-1H-imidazol-1-yl)phenyl]methylidene]-6,6-dimethylmorpholin-3-one] | 67 |
| COc1cc(/C=C2\O[C@H](C)CN(Cc3ccc(F)c(F)c3F)C2=O)ccc1-n1cnc(C)c1 [Example 6, (Z)-(R)-2-[1-[3-methoxy-4-(4-methyl-1H-imidazol-1-yl)phenyl]methylidene]-6-methyl-4-(2,3,4-trifluorobenzyl)morpholin-3-one] | 156 |
| COc1cc(/C=C2\O[C@H](C)CN([C@H]3CCOc4ccccc43)C2=O)ccc1-n1cnc(C)c1 [Example 14, (Z)-(R)-4-[(S)-chroman-4-yl]-2-[1-[3-methoxy-4-(4-methyl-1H-imidazol-1-yl)phenyl]methylidene]-6-methylmorpholin-3-one] | 146 |

Same assay, conditions: rat primary neuronal culture (cerebral cortex, embryonic day 18 Wistar rats); medium collected three days after addition of compound; Aβx-42 ELISA; read-out: Activity for reducing Aβ42 production IC50

| Structure (SMILES) | IC50 [nM] |
| --- | --- |
| COc1cc(/C=C2\OC[C@H]3CCC[C@@H](c4ccc(F)cc4)N3C2=O)ccc1-n1cnc(C)c1 [Example 16] | 201 |
